US6410529B1, “Phenyl urea and phenyl thiourea derivatives as HFGAN72 antagonists” (SmithKline Beecham p.l.c., priority 1997, dated 2002)
Where a name gives a salt, the structure may show the parent alone.

Target: T1, human HFGAN72 receptor (Homo sapiens, UniProt O43613)
T1 construct: expressed in transfected cells; host or cells: HEK293
T1 sequence (O43613 1-425): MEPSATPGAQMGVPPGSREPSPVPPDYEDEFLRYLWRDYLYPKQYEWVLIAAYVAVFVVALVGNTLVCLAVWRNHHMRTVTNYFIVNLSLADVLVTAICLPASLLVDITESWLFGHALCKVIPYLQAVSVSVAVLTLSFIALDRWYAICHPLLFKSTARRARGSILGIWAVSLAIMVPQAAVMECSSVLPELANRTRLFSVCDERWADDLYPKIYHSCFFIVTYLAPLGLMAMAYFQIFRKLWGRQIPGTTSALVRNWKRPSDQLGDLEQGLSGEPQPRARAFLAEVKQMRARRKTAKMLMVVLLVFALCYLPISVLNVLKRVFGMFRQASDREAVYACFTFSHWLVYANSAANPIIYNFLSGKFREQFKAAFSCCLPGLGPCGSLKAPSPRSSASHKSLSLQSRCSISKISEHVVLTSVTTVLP
Test: HFGAN72 receptor antagonist activity, FLIPR intracellular calcium assay against human Lig 72A
Type: cell-based
Conditions: HEK293 cells expressing human HFGAN72 receptor; against 3.0 nM human Lig 72A; Kb=IC50/(1+([3/EC50])
Experimental: The HFGAN72 receptor antagonist activity of the compounds of formula (I), including those compounds in which X and Y both represent CH and without provisos a)-f), was determined in accordance with the following experimental method.
HEK293 cells expressing the human HFGAN72 receptor were grown in cell medium (MEM medium with Earl's salts) containing 2 mM L-Glutamine, 0.4 mg/mL G418 Sulphate from GIBCO BRL and 10% heat inactivated fetal calf serum from Gibco BRL. The cells were seeded at 20,000 cells/100 μl/well into 96-well black clear bottom sterile plates from Costar which had been pre-coated with 10 μg/well of poly-L-lysine from SIGMA. The seeded plates were incubated overnight at 37° C. in 5% CO2.
Agonists were prepared as 1 mM stocks in water:DMSO (1:1). EC50 values (the concentration required to produce 50% maximal response) were estimated using 11× half log unit dilutions (Biomek 2000, Beckman) in Tyrode's buffer containing probenecid (10 mM HEPES with 145 mM NaCl, 10 mM glucose, 2.5 mM KCl, 1.5 mM CaCl2, 1.2 mM MgCl2 and 2.5 mM probenecid; pH7.4). […] On the day of assay 50 μl of cell medium containing probenecid (Sigma) and Fluo3AM (Texas Fluorescence Laboratories) was added (Quadra, Tomtec) to each well to give final concentrations of 2.5 mM and 4 μM, respectively. […] Cell plates were then transferred to the Fluorescent Imaging Plate Reader (FLIPR, Molecular Devices) instrument and maintained at 37° C. in humidified air. […] Agonists were added (by the FLIPR) after 20 sec (during continuous reading). From each well, peak fluorescence was determined over the whole assay period and the mean of readings 1-19 inclusive was subtracted from this figure. The peak increase in fluorescence was plotted against compound concentration and iteratively curve fitted using a four parameter logistic fit (as described by Bowen and Jerman, 1995, TiPS, 16, 413-417) to generate a concentration effect value. Antagonist Kb values were calculated using the equation: […]
where EC50 was the potency of human Lig72A determined in the assay (in nM terms) and IC50 is expressed in molar terms.

Kb	Structure (SMILES)
< 0.1 µM	COc1ccc(NC(=O)Nc2ccnc3ccccc23)cc1Cl [Example 31, 1-(3-Chloro-4-methoxyphenyl)-3-quinolin-4-ylurea hydrochloride]
< 0.1 µM	Cn1ccc2cc(NC(=O)Nc3ccnc4ccccc34)ccc21 [Example 1, 1-(1-Methyl-1H-indol-5-yl)-3-quinolin-4-ylurea]
< 0.1 µM	CSc1ccc(NC(=O)Nc2ccnc3ccccc23)cc1 [Example 14, 1-(4-Methylthiophenyl)-3-quinolin-4-ylurea hydrochloride]
